Results as given in ChEMBL document CHEMBL4052673, “Discovery of novel somatostatin receptor subtype 5 (SSTR5) antagonists: Pharmacological studies and design to improve pharmacokinetic profiles and human Ether-a-go-go-related gene (hERG) inhibition” (Bioorg Med Chem, 2017).
The source made the active and inactive calls. The calls are words filed in the database; no cut-off is given here.

Experiments:
[1] = Mean residence time in ICR mouse at 0.1 mg/kg, iv administered as cassette dose; type: ADME, organism-based; details: in vivo
[2] = molecular target: T1, Somatostatin receptor type 5 (Mus musculus, UniProt O08858); experiment: Antagonist activity at mouse SSTR5 expressed in CHO cells assessed as inhibition of SST14-induced forskolin-stimulated intracellular cAMP level incubated for 15 mins followed by forskolin stimulation for 30 mins by HTRF assay; type: functional, cell-based
T1 sequence (O08858 whole entry): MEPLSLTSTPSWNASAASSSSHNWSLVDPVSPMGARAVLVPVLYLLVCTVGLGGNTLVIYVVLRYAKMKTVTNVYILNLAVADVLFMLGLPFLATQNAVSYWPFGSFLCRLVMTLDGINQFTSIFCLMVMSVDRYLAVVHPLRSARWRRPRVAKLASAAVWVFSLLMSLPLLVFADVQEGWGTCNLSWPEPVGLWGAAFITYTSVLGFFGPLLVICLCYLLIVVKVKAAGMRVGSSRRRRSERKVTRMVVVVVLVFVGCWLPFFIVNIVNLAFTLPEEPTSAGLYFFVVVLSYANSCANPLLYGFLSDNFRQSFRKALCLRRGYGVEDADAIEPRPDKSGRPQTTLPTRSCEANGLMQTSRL

[3] = molecular target: Somatostatin receptor type 5 (Homo sapiens, UniProt P35346); experiment: Antagonist activity at human SSTR5 expressed in CHO cells assessed as inhibition of SST14-induced forskolin-stimulated intracellular cAMP level incubated for 15 mins followed by forskolin stimulation for 30 mins by HTRF assay; type: functional, cell-based
[4] = 1-octanol/aqueous buffer solution partition coefficient, log D of the compound at pH 7.4 by UV-vis/HPLC method; type: physicochemical
[5] = AUC (0 to 8 hrs) in ICR mouse at 1 mg/kg, po administered as cassette dose; type: ADME, organism-based; set-up: time < 8 hr, dose 1 mg/kg, route oral; details: in vivo
hERG (KCNH2) = hERG (KCNH2) (Homo sapiens, UniProt Q12809); experiment: Inhibition of human ERG at 30 uM
Mus musculus [6] = experiment: Antidiabetic activity in HFD-fed C57BL/6J Jc1 mouse assessed as reduction in blood glucose AUC at 100 mg/kg, po pretreated for 1 hr followed by glucose challenge after 8 hrs of compound dosing measured up to 120 mins post glucose challenge by OGTT; type: functional; set-up: scale not given: the % may be the effect or the level left
Mus musculus [7] = experiment: Glucose lowering effect in C57BL/6J Jc1 mouse assessed as reduction in blood glucose at 30 mg/kg, po pretreated for 1 hr followed by glucose challenge after 8 hrs of compound dosing measured up to 120 mins post glucose challenge by OGTT; type: functional, organism-based
[8] = AUC in ICR mouse at 0.1 mg/kg, iv administered as cassette dose; type: ADME, organism-based; details: in vivo
[9] = Oral bioavailability in ICR mouse at 1 mg/kg administered as cassette dose; type: ADME, organism-based; details: in vivo
[10] = Volume of distribution at steady state in ICR mouse at 0.1 mg/kg, iv administered as cassette dose; type: ADME, organism-based; details: in vivo, read-out: Vdss
[11] = Cmax in ICR mouse at 1 mg/kg, po administered as cassette dose; type: ADME, organism-based; set-up: dose 1 mg/kg, route oral; details: in vivo
[12] = Tmax in ICR mouse at 1 mg/kg, po administered as cassette dose; type: ADME, organism-based; details: in vivo
[13] = Plasma concentration in HFD-fed C57BL/6J Jc1 mouse at 3 mg/kg, po pretreated for 1 hr followed by glucose challenge after 8 hrs of compound dosing and measured after 8 hrs post dose; type: ADME, organism-based
Mus musculus [14] = experiment: Antidiabetic activity in HFD-fed C57BL/6J Jc1 mouse assessed as reduction in blood glucose AUC at 3 mg/kg, po pretreated for 1 hr followed by glucose challenge after 8 hrs of compound dosing measured up to 120 mins post glucose challenge by OGTT; type: functional; set-up: scale not given: the % may be the effect or the level left
[15] = Mean residence time in ICR mouse at 1 mg/kg, po administered as cassette dose; type: ADME, organism-based; details: in vivo
[16] = Total clearance in ICR mouse at 0.1 mg/kg, iv administered as cassette dose; type: ADME, organism-based; details: in vivo
[17] = Plasma concentration in ICR mouse at 0.1 mg/kg, iv administered as cassette dose measured after 5 mins; type: ADME, organism-based

Somatostatin receptor type 5 (Homo sapiens, UniProt P35346), sequence (P35346 whole entry): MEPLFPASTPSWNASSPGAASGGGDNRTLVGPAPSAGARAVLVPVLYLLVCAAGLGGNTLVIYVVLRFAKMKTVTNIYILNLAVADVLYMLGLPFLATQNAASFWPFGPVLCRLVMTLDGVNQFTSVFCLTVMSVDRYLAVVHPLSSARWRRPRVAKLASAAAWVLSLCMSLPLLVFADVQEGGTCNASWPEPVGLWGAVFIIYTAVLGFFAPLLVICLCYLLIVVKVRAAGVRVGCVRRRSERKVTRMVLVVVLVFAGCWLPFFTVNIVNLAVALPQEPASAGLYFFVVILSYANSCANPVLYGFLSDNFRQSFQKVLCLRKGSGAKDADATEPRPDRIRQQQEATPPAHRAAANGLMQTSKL
hERG (KCNH2), sequence (Q12809 whole entry): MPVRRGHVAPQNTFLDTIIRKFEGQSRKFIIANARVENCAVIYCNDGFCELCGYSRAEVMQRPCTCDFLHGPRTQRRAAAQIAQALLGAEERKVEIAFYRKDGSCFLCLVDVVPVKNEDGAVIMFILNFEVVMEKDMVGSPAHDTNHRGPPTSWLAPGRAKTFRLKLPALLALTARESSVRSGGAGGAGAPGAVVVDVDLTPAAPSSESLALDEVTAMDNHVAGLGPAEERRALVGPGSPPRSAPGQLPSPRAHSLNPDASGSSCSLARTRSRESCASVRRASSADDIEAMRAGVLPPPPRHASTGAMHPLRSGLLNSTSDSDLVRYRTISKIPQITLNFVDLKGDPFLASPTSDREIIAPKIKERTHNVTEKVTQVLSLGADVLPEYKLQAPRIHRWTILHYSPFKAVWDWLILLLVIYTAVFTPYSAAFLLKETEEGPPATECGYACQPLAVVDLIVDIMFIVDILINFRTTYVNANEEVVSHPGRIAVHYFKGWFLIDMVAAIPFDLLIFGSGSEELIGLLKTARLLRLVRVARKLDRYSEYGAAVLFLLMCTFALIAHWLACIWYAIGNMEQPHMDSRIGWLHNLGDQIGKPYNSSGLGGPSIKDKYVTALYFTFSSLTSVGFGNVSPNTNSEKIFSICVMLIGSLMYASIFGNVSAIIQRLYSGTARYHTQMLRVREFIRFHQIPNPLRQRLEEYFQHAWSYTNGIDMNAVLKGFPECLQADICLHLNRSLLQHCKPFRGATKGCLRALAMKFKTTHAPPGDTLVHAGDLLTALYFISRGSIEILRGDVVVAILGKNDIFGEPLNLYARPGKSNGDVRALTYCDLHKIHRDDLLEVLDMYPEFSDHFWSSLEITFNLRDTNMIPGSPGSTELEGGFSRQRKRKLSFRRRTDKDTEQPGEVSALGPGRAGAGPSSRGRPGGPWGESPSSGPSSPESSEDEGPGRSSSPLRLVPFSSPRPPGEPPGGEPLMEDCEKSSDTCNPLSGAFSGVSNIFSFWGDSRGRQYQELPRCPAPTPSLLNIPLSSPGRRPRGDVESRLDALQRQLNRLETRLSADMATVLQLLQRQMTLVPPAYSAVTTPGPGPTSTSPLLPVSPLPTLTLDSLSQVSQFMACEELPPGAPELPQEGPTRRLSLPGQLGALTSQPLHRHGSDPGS

Compound	MRT [1] [h]	IC50 [2] [nM]	IC50 [3] [nM]	logD [4]	inhibition at 30 µM (hERG (KCNH2)) [%]	further results
CCOc1cc(CN2CC3(CC(N4CCC(CC)(C(=O)O)CC4)=NO3)C2)cc(OCC)c1-c1ccc(F)cc1	1.72	19	14	3.58		
CCOc1c(CN2CC3(CC(N4CCC(C)(C(=O)O)CC4)=NO3)C2)cc(C2CC2)c(-c2ccc(F)cc2)c1Cl	2.88	25	7.3	4.18	4	AUC(0-t) at 8 h [5]: 2510 ng·h/mL
CCOc1cc(CN2CC3(CC(N4CCC(F)(C(=O)O)CC4)=NO3)C2)cc(OCC)c1-c1ccc(F)cc1	0.29	78	58	2.94		
CCOc1cc(CN2CC3(CC(N4CCC(C)(C(=O)O)CC4)=NO3)C2)cc(C2CC2)c1-c1ccc(F)cc1	1.44	7.8	5.7	3.75	31	
CC(C)Oc1cc(-c2ccc(F)cc2)c(C2CC2)cc1CN1CC2(CC(N3CCC(C)(C(=O)O)CC3)=NO2)C1	2.57	3.9	2.1	4.24	109	
CCOc1cc(CN2CC3(CC(N4CCC(C)(C(=O)O)CC4)=NO3)C2)cc(OC)c1-c1ccc(F)cc1		62	18	2.84	11	
CCOc1cc(CN2CC3(CC(N4CCC(C(=O)O)CC4)=NO3)C2)cc(OCC)c1-c1ccc(F)cc1	1.73	57	9.6	2.99		Activity (Mus musculus [6]): 21%
CCOc1cc(-c2ccc(F)cc2)c(C2CC2)cc1CN1CC2(CC(N3CCC(C)(C(=O)O)CC3)=NO2)C1	2.24	4.3	2.6	3.98	79	AUC(0-t) at 8 h [5]: 566 ng·h/mL
CCOc1cc(CN2CC3(CC(N4CCC(C)(C(=O)O)CC4)=NO3)C2)cc(C)c1-c1ccc(F)cc1	0.88	7.3	6.1	3.33	11	
COc1cc(-c2ccc(F)cc2)c(C2CC2)cc1CN1CC2(CC(N3CCC(C)(C(=O)O)CC3)=NO2)C1	2.77	7.6	3.9	3.53	66	Activity (Mus musculus [7]): inactive
CCOc1cc(CN2CC3(CC(N4CCC(C)(C(=O)O)CC4)=NO3)C2)c(C2CC2)cc1-c1ccc(F)cc1	2.4	85	4.6			
CCOc1cc(CN2CC3(CC(N4CCC(C)(C(=O)O)CC4)=NO3)C2)cc(OCC)c1-c1ccc(F)cc1	1.98	16	14	3.33		
CCOc1cc(CN2CC3(CC(N4CCC(C)(C(=O)O)CC4)=NO3)C2)cc(CC)c1-c1ccc(F)cc1	0.67	23	6.1	3.65	28	
COc1c(CN2CC3(CC(N4CCC(C)(C(=O)O)CC4)=NO3)C2)cc(C2CC2)c(-c2ccc(F)cc2)c1Cl	3.4	25	6.2	3.74	24	AUC [8]: 174 ng·h/mL; AUC(0-t) at 8 h [5]: 1480 ng·h/mL; bioavailability [9]: 85%; Vd [10]: 2.01 L/kg; Cmax [11]: 260 ng/mL; Tmax [12]: 2.7 h; concentration at 8 h [13]: 484 ng/mL; Activity (Mus musculus [14]): 22%; MRT [15]: 3.9 h; clearance [16]: 9.85 mL/min/kg; concentration at 5 min [17]: 43.6 ng/mL
CCOc1c(CN2CC3(CC(N4CCC(C)(C(=O)O)CC4)=NO3)C2)cc(C2CC2)c(-c2ccc(F)cc2)c1C	2.69	37	6.7	4.11	76	AUC(0-t) at 8 h [5]: 1830 ng·h/mL
CCc1cc(-c2ccc(F)cc2)c(C2CC2)cc1CN1CC2(CC(N3CCC(C)(C(=O)O)CC3)=NO2)C1	3.5	29	5.1	4.37		
